Experimental data from patent US20240336593A1, “Compound Having Antitumor Activity And Use Thereof” (lnnovStoneTherapeutics Limited, priority 2020, published 2024).

target: PRMT5 (Homo sapiens (Human), UniProt O14744); experiment: Inhibitory activity against PRMT5 enzyme by radioisotopic method; assay type: biochemical; conditions: PRMT5 5 nM, [3H]-SAM 0.3 μM, polypeptide substrate GL-27 100 nM, room temperature
Procedure: Test Example 1. Test on the inhibitory activity of the compounds of the invention against PRMT5 enzyme by radioisotopic method
Test method: A 1× enzyme reaction buffer (10 mM Tris 8.0 (Sigma, Cat. No. T2694-1L), 0.01% Tween-20 (Sigma, Cat. No. P2287-100 ML), 1 mM DTT (Sigma, Cat. No. D0632-10G)) was prepared. PRMT5 (Active Motif, Cat. No. 31921) and [3H]—SAM (PerkinElmer, Cat. No. NET155V001MC) were added to the 1×enzyme reaction buffer, to prepare a 25/15× mixed solution (PRMT5 final concentration: 5 nM, [3H]—SAM final concentration: 0.3 μM). 15 μL of this solution was transferred into a 384-well microplate (Corning 384-well Polypropylene Storage Microplates, Cat. No. 3657) with various concentrations of the compounds (DMSO final concentration 1%), and incubated at room temperature for 60 minutes. A polypeptide substrate, GL-27 (Ac-[…]-K (Biotin) (GL Biochem, Cat. No. 342095)), was added into the 1×enzyme reaction buffer to prepare a 25/10× substrate solution. Then 10 μL of the polypeptide substrate solution (final concentration of the polypeptide substrate: 100 nM) was added, a reaction was stirred at room temperature for 120 minutes, and then 5 μL 6× ice cold SAM (Sigma, Cat. No. A7007-100 MG) solution was added to stop the reaction (SAM final concentration: 0.125 mM). 25 µL of the reaction mixture was transferred into a FlashPlate (Streptavidin FlashPlate HTS PLUS, High Capacity, 384-well, Perkin Elmer, Cat. No. SMP410A001PK), and incubated at room temperature for 1 h. After washed three times with distilled water containing 0.1% Tween-20, the microplate was read on a MicroBeta reader for CPM data (Counts Per Minute). […] Then the inhibition rate Inh % (Y) corresponding to each concentration (X) was input in EXCEL, and the IC50 value (the half maximal inhibitory concentration) of each compound was calculated with the XLfit plug-in according to the built-in four-parameter fitting equation Y=Bottom+(Top-Bottom)/(1+(IC50/X)[…]).

PRMT5, sequence (O14744 whole entry): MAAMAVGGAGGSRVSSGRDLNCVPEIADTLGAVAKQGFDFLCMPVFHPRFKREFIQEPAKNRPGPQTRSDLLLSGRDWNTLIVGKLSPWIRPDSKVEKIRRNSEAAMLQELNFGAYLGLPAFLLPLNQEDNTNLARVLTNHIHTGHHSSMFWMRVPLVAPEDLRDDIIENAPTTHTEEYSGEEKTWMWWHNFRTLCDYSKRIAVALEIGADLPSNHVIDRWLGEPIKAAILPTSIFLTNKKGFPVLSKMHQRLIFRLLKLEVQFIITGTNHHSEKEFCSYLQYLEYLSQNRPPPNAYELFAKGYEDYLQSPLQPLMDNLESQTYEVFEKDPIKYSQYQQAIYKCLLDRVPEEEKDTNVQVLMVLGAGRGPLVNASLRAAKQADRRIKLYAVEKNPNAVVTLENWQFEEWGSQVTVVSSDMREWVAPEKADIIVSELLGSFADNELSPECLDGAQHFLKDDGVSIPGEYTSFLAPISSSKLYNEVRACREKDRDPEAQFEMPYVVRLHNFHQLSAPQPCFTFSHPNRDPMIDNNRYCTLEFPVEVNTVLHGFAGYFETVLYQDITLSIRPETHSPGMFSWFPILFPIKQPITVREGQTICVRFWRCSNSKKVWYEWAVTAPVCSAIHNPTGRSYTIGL
PRMT5, sequence (Q9BQA1 whole entry partner): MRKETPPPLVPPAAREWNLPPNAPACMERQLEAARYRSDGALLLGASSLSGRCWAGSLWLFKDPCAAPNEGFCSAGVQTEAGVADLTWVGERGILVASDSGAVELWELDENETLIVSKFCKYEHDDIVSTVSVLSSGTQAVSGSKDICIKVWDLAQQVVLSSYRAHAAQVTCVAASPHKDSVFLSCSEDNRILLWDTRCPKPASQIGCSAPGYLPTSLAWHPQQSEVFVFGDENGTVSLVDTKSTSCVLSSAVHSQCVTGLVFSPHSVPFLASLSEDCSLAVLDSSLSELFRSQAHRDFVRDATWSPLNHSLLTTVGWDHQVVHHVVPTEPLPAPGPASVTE

IC50, < 100 nM:
CC(=O)N1CCC(Nc2cc(C(=O)N3CC[C@@H](N4CCc5ccccc5C4)[C@H](O)C3)nc(OC3CCC(F)(F)CC3)n2)CC1 [Example 154, 1-(4-((2-((4,4-difluorocyclohexyl)oxy)-6-((3R,4R)-4-(3,4-dihydroisoquinolin-2(1H)-yl)-3-hydroxypiperidine-1-carbonyl)pyrimidin-4-yl)amino)-piperidin-1-yl)ethan-1-one]
CC(=O)N1CCC(CNc2cc(C(=O)N3CC[C@H](N4CCc5ccccc5C4)[C@@H](O)C3)ncn2)CC1 [Example 103]
CC(=O)N1CCC(Nc2cc(C(=O)N3CC[C@H](N4CCc5ccccc5C4)[C@@H](O)C3)nc(-c3ccccc3)n2)CC1 [Example 104]
O[C@@H]1CN(c2cc(Nc3cccc(N4CCOCC4)c3)ncn2)CC[C@H]1N1CCc2ccccc2C1 (relative stereo) [Example 73, trans-4-(3,4-dihydroisoquinolin-2(1H)-yl)-1-(6-((3-morpholinophenyl)amino)pyrimidin-4-yl)piperidin-3-ol]
CC(=O)N1CCC(Nc2cc(C(=O)N3CC[C@@H](N4CCc5ccccc5C4)[C@H](O)C3)nc(OC(F)(F)F)n2)CC1 [Example 151, 1-(4-((6-((3R,4R)-4-(3,4-dihydroisoquinolin-2(1H)-yl)-3-hydroxypiperidine-1-carbonyl)-2-(trifluoromethoxy)pyrimidin-4-yl)amino)piperidin-1-yl)ethan-1-one]
O=C(c1cc(NC2CCN(C(=O)C3CC3)CC2)ncn1)N1CC[C@H](N2CCc3ccccc3C2)[C@@H](O)C1 (relative stereo) [Example 116, trans-(6-((1-(cyclopropanecarbonyl)piperidin-4-yl)amino)pyrimidin-4-yl)(4-(3,4-dihydroisoquinolin-2(1H)-yl)-3-hydroxypiperidin-1-yl)ketone]
O[C@@H]1CN(c2cc(Nc3ccc(N4CCCC4)cc3)ncn2)CC[C@H]1N1CCc2ccccc2C1 (relative stereo) [Example 95, trans-4-(3,4-dihydroisoquinolin-2(1H)-yl)-1-(6-((4-(pyrrolidin-1-yl)phenyl)amino)pyrimidin-4-yl)piperidin-3-ol]
COCC(=O)N1CCC(Nc2cc(C(=O)N3CC[C@H](N4CCc5ccccc5C4)[C@@H](O)C3)ncn2)CC1 (relative stereo) [Example 113, 1-(4-((6-(trans-4-(3,4-dihydroisoquinolin-2(1H)-yl)-3-hydroxypiperidine-1-carbonyl)pyrimidin-4-yl)amino)piperidin-1-yl)-2-methoxyethan-1-one]
CCC(CC)Oc1nc(NC2CCN(C(=O)C3CC(F)(F)C3)CC2)cc(C(=O)N2CC[C@@H](N3CCc4ccccc4C3)[C@H](O)C2)n1 [Example 156, (6-((1-(3,3-difluorocyclobutane-1-carbonyl)piperidin-4-yl)amino)-2-(pentan-3-oxy)pyrimidin-4-yl)((3R,4R)-4-(3,4-dihydroisoquinolin-2(1H)-yl)-3-hydroxy-piperidin-1-yl)ketone]
COc1c(F)cccc1Nc1cc(N2CC[C@@H](N3CCc4ccccc4C3)[C@H](O)C2)ncn1 (relative stereo) [Example 88, trans-1-(6-((3-fluoro-2-methoxyphenyl)amino)pyrimidin-4-yl)-4-(3,4-dihydroisoquinolin-2(1H)-yl)piperidin-3-ol]
CC(=O)N1CCC(Nc2cc(C(=O)N3CC[C@@H](N4CCc5ccccc5C4)[C@H](O)C3)nc(N3CCN(C)CC3)n2)CC1 [Example 149, 1-(4-((6-((3R,4R)-4-(3,4-dihydroisoquinolin-2(1H)-yl)-3-hydroxypiperidine-1-carbonyl)-2-(4-methylpiperazin-1-yl)pyrimidin-4-yl)amino)piperidin-1-yl)ethan-1-one]
O[C@H]1CN(c2cc(Nc3cccc4c3OCCO4)ncn2)CC[C@@H]1N1CCc2ccccc2C1 (relative stereo) [Example 94, trans-1-(6-((2,3-dihydrobenzo[b][1,4]dioxin-5-yl)amino)pyrimidin-4-yl)-4-(3,4-dihydroisoquinolin-2(1H)-yl)piperidin-3-ol]
O=C(c1cc(Nc2cccc(N3CCCC3)c2)ncn1)N1CC[C@H](N2CCc3ccccc3C2)[C@@H](O)C1 [Example 108]
O[C@H]1CN(c2cc(Nc3cccc(C4CC4)c3)ncn2)CC[C@@H]1N1CCc2ccccc2C1 (relative stereo) [Example 35, trans-1-(6-((3-cyclopropylphenyl)amino)pyrimidin-4-yl)-4-(3,4-dihydroisoquinolin-2(1H)-yl)piperidin-3-ol]
O[C@H]1CN(c2cc(Nc3ccccc3N3CCOCC3)ncn2)CC[C@@H]1N1CCc2ccccc2C1 (relative stereo) [Example 50, trans-4-(3,4-dihydroisoquinolin-2(1H)-yl)-1-(6-((2-morpholinylphenyl)-amino)pyrimidin-4-yl)piperidin-3-ol]
CC(=O)N1CCC(Nc2cc(C(=O)N3CC[C@@H](N4CCc5ccccc5C4)[C@H](O)C3)nc(OCC(C)C)n2)CC1 [Example 140, 1-(4-((6-((3R,4R)-4-(3,4-dihydro-4,4-dideuterium-isoquinolin-2(1H)-yl)-3-hydroxypiperidine-1-carbonyl)-2-isobutoxypyrimidin-4-yl)amino)piperidin-1-yl)ethan-1-one]
COCCN1CCC(Nc2cc(C(=O)N3CC[C@H](N4CCc5ccccc5C4)[C@@H](O)C3)ncn2)CC1 [Example 96]
O[C@H]1CN(c2cc(Nc3ccccc3)ncn2)CC[C@@H]1N1CCc2ccccc2C1 (relative stereo) [Example 24, trans-4-(3,4-dihydroisoquinolin-2(1H)-yl)-1-(6-(phenylamino)-pyrimidin-4-yl)piperidin-3-ol]
COc1cc(F)ccc1Nc1cc(N2CC[C@H](N3CCc4ccccc4C3)[C@@H](O)C2)ncn1 (relative stereo) [Example 93, trans-4-(3,4-dihydroisoquinolin-2(1H)-yl)-1-(6-((4-fluoro-2-methoxyphenyl)amino)pyrimidin-4-yl)piperidin-3-ol]
CC(=O)N1CCC(CCNc2cc(C(=O)N3CC[C@H](N4CCc5ccccc5C4)[C@@H](O)C3)ncn2)CC1 (relative stereo) [Example 115, trans-1-(4-(2-((6-(4-(3,4-dihydroisoquinolin-2(1H)-yl)-3-hydroxy-piperidine-1-carbonyl)pyrimidin-4-yl)amino)ethyl)piperidin-1-yl)ethanone]
O=C(C(=O)N1CCC(Nc2cc(C(=O)N3CC[C@H](N4CCc5ccccc5C4)[C@@H](O)C3)ncn2)CC1)C1CC1 (relative stereo) [Example 99, trans-1-cyclopropyl-2-(4-((6-(4-(3,4-dihydroisoquinolin-2(1H)-yl)-3-hydroxypiperidine-1-carbonyl)pyrimidin-4-yl)amino)piperidin-1-yl)ethane-1,2-dione]
O=C(c1cc(N2CC[C@H](N3CCc4ccccc4C3)[C@@H](O)C2)ncn1)N1CC[C@H](N2CCc3ccccc3C2)[C@@H](O)C1 [Example 97]
